Laboratory results taken from article PMC7004521 (Cancer Science, 2019).

Columns and labels:
advanced solid tumors = details: Japanese patients with advanced solid tumors; cited from earlier work
c‐MET phosphorylation = details: read-out: EC90 (90% inhibition of c‐MET phosphorylation); total concentration; c‐MET‐dependent mouse tumor models; cited from earlier work
[1] = End of treatment / discontinuation reasons; assay type: in vivo, human; details: dose‐expansion part, six of 38 patients
p‐MET = p‐MET immunohistochemistry in paired tumor biopsies; assay type: in vivo, human; details: 450 mg bid capsule, cycle 1 day 15, one advanced CRC patient

Q: With `CNC(=O)c1ccc(-c2cnc3ncc(Cc4ccc5ncccc5c4)n3n2)cc1F` [capmatinib] as the compound, how does the “best overall response stable disease” value (advanced solid tumors) read?
A: 18.2%

Q: And the EC90 (c‐MET phosphorylation)?
A: ~71 nM

Q: And the “patients discontinued as a result of AE” value [1]?
A: 16%

Q: What about the “p‐MET H‐score (IHC) on treatment” value (p‐MET) of the same compound?
A: 2
